These compounds were tested against T1, hSTING (Homo sapiens, UniProt Q86WV6, G230A/H232R/R293Q/R71H) (assay: STING reporter assay (luciferase reporter) in THP1-Dual KO-IFNAR2 cells activated with 2′3′cGAMP). Details: 15 μM 2′3′cGAMP, 24 h, luciferase reporter activity.
T1 construct: host or cells: THP1-Dual KO-IFNAR2 cells
Type: cell-based
Method: STING pathway activation by the compounds described herein is measured using THP1-Dual™ cells (KO-IFNAR2).
THP1-Dual™ KO-IFNAR2 Cells (obtained from invivogen) are maintained in RPMI, 10% FCS, 5 ml P/S, 2 mM L-glut, 10 mM Hepes, and 1 mM sodium pyruvate. Compounds are spotted in empty 384 well tissue culture plates (Greiner 781182) by Echo for a final concentration of […]. Cells are plated into the TC plates at 40 μL per well, 2×10E6 cells/mL. For activation with STING ligand, 2′3′cGAMP (MW 718.38, obtained from Invivogen), is prepared in Optimem media.
The following solutions are prepared for each 1×384 plate: • Solution A: 2 mL Optimem with one of the following stimuli: • 60 uL of 10 mM 2′3′cGAMP→150 μM stock • Solution B: 2 mL Optimem with 60 μL Lipofectamine 2000→Incubate 5 min at RT
2 mL of solution A and 2 ml Solution B is mixed and incubated for 20 min at room temperature (RT). 20 uL of transfection solution (A+B) is added on top of the plated cells, with a final 2′3′cGAMP concentration of 15 μM. The plates are then centrifuged immediately at 340 g for 1 minute, after which they are incubated at 37° C., 5% CO2, >98% humidity for 24 h. Luciferase reporter activity is then measured. EC50 values were calculated by using standard methods known in the art.
Luciferase Reporter Assay:
10 μL of supernatant from the assay is transferred to white 384-plate with flat bottom and squared wells. one pouch of QUANTI-Luc™ Plus is dissolved in 25 mL of water. 100 μL of QLC Stabilizer per 25 mL of QUANTI-Luc™ Plus solution was added. 50 μL of QUANTI-Luc™ Plus/QLC solution per well is then added. Luminescence is measured on a Platereader (e.g., Spectramax I3X (Molecular Devices GF3637001)).
Luciferase reporter activity is then measured. EC50 values are calculated by using standard methods known in the art.

T1 sequence (Q86WV6 whole entry R71H/G230A/H232R/R293Q): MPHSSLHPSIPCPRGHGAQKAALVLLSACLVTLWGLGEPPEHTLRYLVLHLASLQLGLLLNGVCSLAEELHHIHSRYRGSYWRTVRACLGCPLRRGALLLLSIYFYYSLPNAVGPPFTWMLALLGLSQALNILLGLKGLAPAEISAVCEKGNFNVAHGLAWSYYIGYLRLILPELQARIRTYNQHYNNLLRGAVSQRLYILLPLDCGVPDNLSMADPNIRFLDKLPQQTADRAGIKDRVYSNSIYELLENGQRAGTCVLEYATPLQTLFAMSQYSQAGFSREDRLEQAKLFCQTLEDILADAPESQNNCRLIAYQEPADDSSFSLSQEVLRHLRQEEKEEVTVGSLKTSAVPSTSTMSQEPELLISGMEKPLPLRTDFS

**Q.** `CCc1cnc(NC(=O)Nc2c[nH]c3ncccc23)s1` [Compound 168] was tested. Which EC50 did it give?
**A.** Its EC50 is 5 to 100 µM.

**Q.** How did the EC50 turn out when `O=C(Nc1ccc(C(F)(F)F)cc1)Nc1c[nH]c2nccc(-c3cccnc3)c12` [Compound 189] was run?
**A.** Its EC50 is 5 to 100 µM.

**Q.** How did the EC50 turn out when `O=C(Nc1ccc(C(F)(F)F)cn1)Nc1c[nH]c2cccnc12` [Compound 152] was run?
**A.** The EC50 was 5 to 100 µM.

**Q.** `O=C(Nc1c[nH]c2ncccc12)N1CCc2ccccc2C1` [Compound 306] was tested. Which EC50 did it give?
**A.** The EC50 was 5 to 100 µM.

**Q.** For `O=C(Nc1ccc(C(F)(F)F)cc1)Nc1c[nH]c2ncc(C3CCCCC3)cc12` [Compound 267, 3-[5-cyclohexyl-1H-pyrrolo[2,3-b]pyridin-3-yl]-1-[4-(trifluoromethyl)phenyl] urea], which EC50 is on record?
**A.** The EC50 was 1 to 5 µM.

**Q.** For `O=C(Nc1ccc(C2CCCCC2)nc1)Nc1c[nH]c2ncccc12` [Compound 263], which EC50 is on record?
**A.** The EC50 was 0.2 to 1 µM.

**Q.** Which EC50 does the source give for `CCc1ccc(NC(=O)Nc2c[nH]c3ncc(F)cc23)cc1` [Compound 174] here?
**A.** The EC50 was 0.04 to 0.2 µM.

**Q.** For `O=C(Nc1cccc(C2CCCCC2)c1)Nc1c[nH]c2cccnc12` [Compound 139], which EC50 is on record?
**A.** Its EC50 is 0.2 to 1 µM.

— US11618749B2, “Compounds and compositions for treating conditions associated with STING activity” (IFM Due, Inc., priority 2018, dated 2023)
